Entries after “also recorded” stand apart in the source; their conditions may differ. Where two headings read alike, the source gives them in different places.
Key:
[1] = biological target: T. vaginalis Tv20S proteasome β1 subunit (Trichomonas vaginalis, UniProt A2E7Z2); assay: In vitro proteasome assay, Ac-RYFD-amc substrate; format: biochemical; conditions: recombinant Tv20S, mean ± SD of three experiments
Description: (§1) The T. vaginalis proteasome was expressed in recombinant form as previously described ([27]). Briefly, Spodoptera frugiperda cells were co-infected with three baculovirus vectors carrying the T. vaginalis genes for the 7 α-subunits, 7 β-subunits, and the Ump-1 chaperone, respectively. The resulting proteasome complex was purified from cell lysates via streptavidin column and size exclusion chromatography and stored at −80°C. Purified human c20S proteasome and recombinant human proteasome activator PA28α ([21]) were obtained from Bio-Techne and stored at −80°C. Dilutions of the test agents were transferred to 384-well plates (Greiner Bio-One) in triplicate wells using an Echo 650 Acoustic Liquid Handler (Beckman Coulter). Six replicate plates were prepared for each compound for testing with three T. vaginalis-optimized substrates and three human-optimized substrates. After dispensing, plates were sealed and stored at −20°C. The following fluorescent substrates and final substrate concentrations were used to assay subunit activities of the T. vaginalis proteasome (Tv20S) ([28]) or the human constitutive proteasome (c20S) ([19], [52]): Ac-RYFD-amc (Genscript) at 100 µM for Tv20S β1 subunit, Ac-FRSR-amc (Genscript) at 20 µM for Tv20S β2 subunit, Ac-GWYL-amc (Genscript) at 20 µM for Tv20S β5 subunit, z-LLE-amc (R&D Systems) at 80 µM for c20S β1 subunit, z-VLR-amc (AdipoGen Life Sciences) at 30 µM for c20S β2 subunit, and suc-LLVY-amc (R&D Systems) at 65 µM for c20S β5 subunit. Substrates and proteasomes were diluted in an assay buffer consisting of HEPES pH 7.5 and 1 mM DTT. For the human proteasome assays, 2 nM c20S was incubated at room temperature with 200 nM PA28α for 1 h to activate the complex prior to addition to the 384-well plates containing the substrate-inhibitor mixtures. […] Both proteasomes were added to the wells at a 1 nM final assay concentration. Fluorescence was measured over 4 h at 360 nm excitation and 460 nm emission on a Biotek Synergy HTX plate reader.

[2] = biological target: T1, Human c20S proteasome β1 subunit (Homo sapiens, UniProt P28072+Q99436); assay: In vitro proteasome assay, z-LLE-amc substrate; format: biochemical; conditions: purified human c20S with PA28α, mean ± SD; for IC50: read-out: Human c20S proteasome inhibition of β1 subunit (IC50)
T1 construct: purchased Bio-Techne
Description: as §1

[3] = test system: T. vaginalis Tv20S proteasome β2 subunit; assay: In vitro proteasome assay, Ac-FRSR-amc substrate; format: biochemical, Trichomonas vaginalis; conditions: recombinant Tv20S, mean ± SD of three experiments; for IC50: read-out: Tv20S proteasome inhibition of β2 subunit (IC50)
Description: as §1

[4] = biological target: T. vaginalis Tv20S proteasome β5 subunit (Trichomonas vaginalis, UniProt A2DD57+A2F716); assay: biochemical; format: biochemical
Description: as §1

[5] = biological target: T2, Human c20S proteasome β5 subunit (Homo sapiens, UniProt P20618+P28074); assay: In vitro proteasome assay, suc-LLVY-amc substrate; format: biochemical; conditions: purified human c20S with PA28α, mean ± SD
T2 construct: purchased Bio-Techne
Description: as §1

[6] = test system: T. vaginalis strain F1623; assay: 24 h growth and survival assay (ATP luminescence, GI50); format: cell-based, Trichomonas vaginalis; conditions: for SI (ratio of GI50 in HeLa cells over GI50 in T. vaginalis): T. vaginalis F1623 vs human HeLa cells
Description: The following T. vaginalis strains were used: F1623 ([50]), G3 (ATCC PRA-98), and LA1 ([25]). […] Drug susceptibility assays were performed as described previously ([23]) with several minor modifications. Briefly, 10 mM stocks of the test compounds in DMSO were serially diluted 1:3 using an Echo 650 Acoustic Liquid Handler (Beckman Coulter). Subsequently, trophozoites (5 × 10^3/well) in TYM modified media were added to the wells in 384-well plates, and cultures were incubated for 24 h at 37°C under anaerobic conditions (AnaeroPack-Anaero System; Remel). For testing in mammalian cells, the following cell lines were used: Human cervical cancer cells HeLa (ATCC CCL-2), non-transformed mouse fibroblast cell line 3T3-L1 (ATCC CL-173), normal monkey kidney epithelial cell line Vero (ATCC CCL-81), and human B lymphoma cells Raji (ATCC CCL-86). Test compounds were serially diluted (1:3) and added to mammalian cell cultures grown in 384-well plates, and cultures were incubated for 48 h at 37°C in 5% CO2, 95% air. Growth and viability of T. vaginalis and mammalian cells were determined with an ATP assay by adding the BacTiter-Glo Microbial Cell Viability Assay reagent (Promega) directly to the wells and measuring ATP-dependent luminescence in a microplate reader. […] Experiments were repeated at least three times, and the mean and SEM of the pGI50 values were calculated.

[7] = biological target: T3, Human c20S proteasome β2 subunit (Homo sapiens, UniProt P49720+Q99436); assay: In vitro proteasome assay, z-VLR-amc substrate; format: biochemical
T3 construct: purchased Bio-Techne
Description: as §1

[8] = recombinant Tv20S, mean ± SD of three experiments, read-out: Tv20S proteasome inhibition of β5 subunit (IC50)
[9] = read-out: Human c20S proteasome inhibition of β5 subunit (IC50)
[10] = purified human c20S with PA28α, mean ± SD, read-out: Human c20S proteasome inhibition of β2 subunit (IC50)
[11] = purified human c20S with PA28α, mean ± SD
[12] = relative to parental compound 4

Sequence of T. vaginalis Tv20S proteasome β5 subunit (A2DD57 entry or part of it): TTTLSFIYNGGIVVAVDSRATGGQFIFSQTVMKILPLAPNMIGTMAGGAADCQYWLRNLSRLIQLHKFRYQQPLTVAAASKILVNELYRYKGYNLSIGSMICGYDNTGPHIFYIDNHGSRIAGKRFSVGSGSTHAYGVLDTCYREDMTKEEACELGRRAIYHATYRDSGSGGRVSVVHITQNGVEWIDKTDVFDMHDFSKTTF
Sequence of T. vaginalis Tv20S proteasome β5 subunit (A2F716 entry or part of it): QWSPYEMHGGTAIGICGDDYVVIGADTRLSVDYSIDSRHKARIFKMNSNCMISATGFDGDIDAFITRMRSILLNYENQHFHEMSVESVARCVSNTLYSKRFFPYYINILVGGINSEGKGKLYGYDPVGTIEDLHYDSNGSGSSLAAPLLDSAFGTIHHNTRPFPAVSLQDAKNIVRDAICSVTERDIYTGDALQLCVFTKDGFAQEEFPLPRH
Sequence of T. vaginalis Tv20S proteasome β1 subunit (A2E7Z2 entry or part of it): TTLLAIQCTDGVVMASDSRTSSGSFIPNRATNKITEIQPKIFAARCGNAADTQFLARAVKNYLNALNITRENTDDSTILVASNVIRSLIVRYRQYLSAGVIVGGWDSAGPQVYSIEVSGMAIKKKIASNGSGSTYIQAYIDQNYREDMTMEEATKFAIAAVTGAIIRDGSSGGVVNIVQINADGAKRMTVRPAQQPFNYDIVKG

Row | Tv20S proteasome inhibition of β1 subunit (IC50) [1] | Human c20S proteasome inhibition of β1 subunit (IC50) [2] | Tv20S proteasome inhibition of β2 subunit (IC50) [3] | IC50 [4, 8] | IC50 [5, 9] | IC50 [7, 10] | SMILES | SI (ratio of GI50 in HeLa cells over GI50 in T. vaginalis) [6] | also measured
1 | Activation | No inhibition | No inhibition | 2.52 ± 1.05 nM | 8.81 ± 0.69 nM |  | CCCCC(=O)N[C@H](Cc1c[nH]c2ccccc12)C(=O)N[C@@H](Cc1c[nH]c2ccccc12)C(=O)N[C@@H](Cc1ccccc1)C(=O)[C@]1(C)CO1 [compound 91] |  | 
2 |  |  |  |  |  |  | COc1ccc(C[C@H](NC(=O)[C@H](C)NC(=O)CN2CCOCC2)C(=O)N[C@@H](CC2CCC(c3ccccc3)CC2)C(=O)[C@@]2(C)CO2)cc1 (some centres unmarked) [compound 201] | < 0.72 | 
3 |  |  |  |  |  |  | CC(C)CC(NC(=O)C(CC12CC3CC(CC(C3)C1)C2)NC(=O)c1cnccn1)B(O)O (centres unmarked) [compound 32] | 1.02 | 
4 |  |  |  |  |  |  | COc1ccc(C[C@H](NC(=O)[C@H](C)NC(=O)CN2CCOCC2)C(=O)N[C@@H](Cc2ccc3ccccc3c2)C(=O)[C@@]2(C)CO2)cc1 [compound 35] | 3.47 | 
5 |  |  |  |  |  |  | COc1ccc(C[C@H](NC(=O)[C@H](C)NC(=O)CN2CCOCC2)C(=O)N[C@@H](CC2CCCCC2)C(=O)[C@@]2(C)CO2)cc1 [compound 156] | 0.83 | 
6 | Activation |  | No inhibition | 8.21 ± 1.16 nM | 11 ± 1.12 nM | 1690 ± 410 nM | COc1ccc(C[C@H](NC(=O)[C@H](C)NC(=O)C2=C(C)c3ccccc3C2)C(=O)N[C@@H](Cc2ccccc2)C(=O)[C@@]2(C)CO2)cc1 [compound 4] | 21.4 | IC50 [2]: 19700 ± 8580 nM
7 | Activation | No inhibition | No inhibition | 172 ± 91.7 nM |  |  | CCCCCC(=O)N[C@H](CC(=O)N[C@@H](CCCC)C(=O)N[C@@H](Cc1ccc(F)cc1F)C(=O)[C@@]1(C)CO1)CC(=O)OC(C)(C)C [compound 75] |  | Human c20S proteasome inhibition of β2 subunit (IC50) [7, 11]: No inhibition; Human c20S proteasome inhibition of β5 subunit (IC50) [5]: no measurable c20S β5 inhibitory activity; also recorded: No inhibition
8 |  |  |  |  |  |  | COc1ccc(C[C@H](NC(=O)[C@H](C)NC(=O)CN2CCOCC2)C(=O)N[C@@H](CC2CCC(C3CCCCC3)CC2)C(=O)[C@@]2(C)CO2)cc1 (some centres unmarked) [compound 197] | < 0.71 | 
9 | Activation | No inhibition | No inhibition | 2.43 ± 0.39 nM | 1.06 ± 0.08 nM | 68.2 ± 13 nM | CCCCC(=O)N[C@@H](Cc1ccc(O)cc1)C(=O)N[C@@H](CCCC)C(=O)N[C@@H](Cc1ccccc1)C(=O)[C@@]1(C)CO1 [compound 5] |  | 
10 |  |  |  |  |  |  | CC(C)C[C@H](NC(=O)[C@H](Cc1ccccc1)NC(=O)c1cnccn1)B(O)O [43 (BTZ), bortezomib, reference compound] |  | IC50 [3]: 30.8 ± 19.9 nM; IC50 ([4]; read-out: Tv20S proteasome inhibition of β5 subunit (IC50)): 21.6 ± 1.69 nM
11 |  |  |  |  |  |  | CCCCCC(=O)N[C@H](CCC(=O)OC(C)(C)C)CC(=O)N[C@@H](CCCC)C(=O)N[C@@H](Cc1ccccc1)C(=O)[C@@]1(C)CO1 [compound 94] | 3.16 | growth inhibitory activity against T. vaginalis (in words) ([6]; F1623): lacked activity and selectivity
12 | Activation | No inhibition | No inhibition | 82.6 ± 32.1 nM | 1010 nM |  | CCCC[C@H](NC(=O)[C@H](CC(=O)N1CCCC1)NC(=O)[C@H](Cc1ccc(OC)cc1)N1CCCC1=O)C(=O)N[C@@H](Cc1ccc(F)cc1F)C(=O)[C@@]1(C)CO1 [compound 45] |  | Human c20S proteasome inhibition of β2 subunit (IC50) [7, 11]: No inhibition
13 | Activation | No inhibition | No inhibition | 44.1 ± 6.71 nM | 39.4 ± 4.76 nM |  | COc1ccc(C[C@H](NC(=O)[C@H](C)NC(=O)C2=C(C)c3ccccc3C2)C(=O)N[C@@H](Cc2ccc(-c3ccccc3)cc2)C(=O)[C@@]2(C)CO2)cc1 [compound 20] | 16.2 | Human c20S proteasome inhibition of β2 subunit (IC50) [7, 11]: No inhibition
14 |  |  |  |  |  |  | COc1ccc(C[C@H](NC(=O)[C@H](C)NC(=O)C2=C(C)c3ccccc3C2)C(=O)N[C@@H](Cc2ccc(-c3ccccc3)cc2)C(=O)[C@]2(C)CO2)cc1 [compound 60] | 8.13 | 
15 | Activation | No inhibition | No inhibition | 9.25 ± 1.81 nM | 13.8 ± 4.21 nM | 64.7 ± 8.19 nM | CSc1ccc(CC(=O)NC(C(=O)NC(Cc2c(F)c(F)c(F)c(F)c2F)C(=O)N[C@@H](CC(C)C)C(=O)[C@@]2(C)CO2)C(C)C)cc1 (some centres unmarked) [compound 50] |  | 
16 |  |  |  |  |  |  | COc1ccc(C[C@H](NC(=O)[C@H](C)NC(=O)C2=C(C)c3ccccc3C2)C(=O)N[C@@H](Cc2ccccc2)C(=O)[C@@H]2CO2)cc1 [compound 66] | 2.69 | loss in selectivity [6, 12]: ~ 10 fold; reduction in activity against T. vaginalis [6, 12]: ~ 50 fold
17 | Activation | No inhibition | No inhibition | 21 ± 2.47 nM | 8.16 ± 1.8 nM | 2160 nM | CCCCCC(=O)N[C@@H](CO)C(=O)N[C@@H](CCCC)C(=O)N[C@@H](Cc1ccccc1)C(=O)[C@@]1(C)CO1 [compound 19] |  | 

Row | SMILES | Tv20S proteasome inhibition of β1 subunit (IC50) [1] | Human c20S proteasome inhibition of β1 subunit (IC50) [2] | Tv20S proteasome inhibition of β2 subunit (IC50) [3] | IC50 [4, 8] | IC50 [5, 9] | IC50 [7, 10] | SI (ratio of GI50 in HeLa cells over GI50 in T. vaginalis) [6] | also measured
18 | C[C@@]12OC(=O)[C@]1([C@@H](O)[C@@H]1C=CCCC1)NC(=O)[C@@H]2CCCl [18 (MZB), marizomib, reference compound] |  |  | No inhibition |  |  | 46.7 ± 11.2 nM |  | IC50 [2]: 66.5 ± 11.7 nM; IC50 ([4]; Tv20S proteasome inhibition of β5 subunit (IC50), recombinant Tv20S, mean ± SD of three experiments): 0.88 ± 0.11 nM
19 | CCCCCC(=O)N[C@H](C(=O)N[C@@H](CCS(C)(=O)=O)C(=O)N[C@@H](CC(C)C)C(=O)[C@@]1(C)CO1)C(C)C [38 (CPB), carmaphycin B, reference compound] | Activation |  |  | 1.51 ± 0.69 nM | 7.92 ± 0.72 nM | 14.6 ± 0.83 nM |  | IC50 [2]: 895 ± 510 nM; IC50 [3]: 440 ± 101 nM; β5 SI ratio (c20S/Tv20S) [4]: 5.25
20 | COc1ccc(CC(NC(=O)C(C)NC(=O)CN2CCOCC2)C(=O)NC(Cc2ccc(-c3ccccc3)cc2)C(=O)C2(C)CO2)cc1 (centres unmarked) [compound 3] | Activation | No inhibition | No inhibition | 12 ± 1.94 nM |  |  | 36.3 | IC50 [7]: 271 ± 26.4 nM; IC50 ([5]; Human c20S proteasome inhibition of β5 subunit (IC50)): 18.1 ± 3.26 nM

Reference: PMC12691669, “Inhibitors of the 20S proteasome β5 subunit as potent and selective agents against Trichomonas vaginalis” (Antimicrobial Agents and Chemotherapy, 2025)
